Results as given in patent US9550775B2, “Substituted triazolopyridines and methods of use thereof” (GENENTECH, INC., priority 2013, dated 2017).

These compounds were tested against hNav1.7 (Homo sapiens (Human), UniProt Q15858) (assay: Tritiated sulfonamide competitive binding to membranes from cells expressing hNav1.7 and the β1 subunit). Conditions: 100 pM [3H]compound, 18 h, room temperature; inactivated state of NaV1.7 membrane binding; read-out: NaV1.7 Ligand Binding Assay (IC50).
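Also: displacement of the tritiated ligand from recombinant cell membranes, read by liquid scintillation counting of filter-bound radioactivity, nonspecific binding defined with 1 µM unlabelled compound.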

hNav1.7, sequence (Q15858 other isoform, or with tags, fused parts or gaps): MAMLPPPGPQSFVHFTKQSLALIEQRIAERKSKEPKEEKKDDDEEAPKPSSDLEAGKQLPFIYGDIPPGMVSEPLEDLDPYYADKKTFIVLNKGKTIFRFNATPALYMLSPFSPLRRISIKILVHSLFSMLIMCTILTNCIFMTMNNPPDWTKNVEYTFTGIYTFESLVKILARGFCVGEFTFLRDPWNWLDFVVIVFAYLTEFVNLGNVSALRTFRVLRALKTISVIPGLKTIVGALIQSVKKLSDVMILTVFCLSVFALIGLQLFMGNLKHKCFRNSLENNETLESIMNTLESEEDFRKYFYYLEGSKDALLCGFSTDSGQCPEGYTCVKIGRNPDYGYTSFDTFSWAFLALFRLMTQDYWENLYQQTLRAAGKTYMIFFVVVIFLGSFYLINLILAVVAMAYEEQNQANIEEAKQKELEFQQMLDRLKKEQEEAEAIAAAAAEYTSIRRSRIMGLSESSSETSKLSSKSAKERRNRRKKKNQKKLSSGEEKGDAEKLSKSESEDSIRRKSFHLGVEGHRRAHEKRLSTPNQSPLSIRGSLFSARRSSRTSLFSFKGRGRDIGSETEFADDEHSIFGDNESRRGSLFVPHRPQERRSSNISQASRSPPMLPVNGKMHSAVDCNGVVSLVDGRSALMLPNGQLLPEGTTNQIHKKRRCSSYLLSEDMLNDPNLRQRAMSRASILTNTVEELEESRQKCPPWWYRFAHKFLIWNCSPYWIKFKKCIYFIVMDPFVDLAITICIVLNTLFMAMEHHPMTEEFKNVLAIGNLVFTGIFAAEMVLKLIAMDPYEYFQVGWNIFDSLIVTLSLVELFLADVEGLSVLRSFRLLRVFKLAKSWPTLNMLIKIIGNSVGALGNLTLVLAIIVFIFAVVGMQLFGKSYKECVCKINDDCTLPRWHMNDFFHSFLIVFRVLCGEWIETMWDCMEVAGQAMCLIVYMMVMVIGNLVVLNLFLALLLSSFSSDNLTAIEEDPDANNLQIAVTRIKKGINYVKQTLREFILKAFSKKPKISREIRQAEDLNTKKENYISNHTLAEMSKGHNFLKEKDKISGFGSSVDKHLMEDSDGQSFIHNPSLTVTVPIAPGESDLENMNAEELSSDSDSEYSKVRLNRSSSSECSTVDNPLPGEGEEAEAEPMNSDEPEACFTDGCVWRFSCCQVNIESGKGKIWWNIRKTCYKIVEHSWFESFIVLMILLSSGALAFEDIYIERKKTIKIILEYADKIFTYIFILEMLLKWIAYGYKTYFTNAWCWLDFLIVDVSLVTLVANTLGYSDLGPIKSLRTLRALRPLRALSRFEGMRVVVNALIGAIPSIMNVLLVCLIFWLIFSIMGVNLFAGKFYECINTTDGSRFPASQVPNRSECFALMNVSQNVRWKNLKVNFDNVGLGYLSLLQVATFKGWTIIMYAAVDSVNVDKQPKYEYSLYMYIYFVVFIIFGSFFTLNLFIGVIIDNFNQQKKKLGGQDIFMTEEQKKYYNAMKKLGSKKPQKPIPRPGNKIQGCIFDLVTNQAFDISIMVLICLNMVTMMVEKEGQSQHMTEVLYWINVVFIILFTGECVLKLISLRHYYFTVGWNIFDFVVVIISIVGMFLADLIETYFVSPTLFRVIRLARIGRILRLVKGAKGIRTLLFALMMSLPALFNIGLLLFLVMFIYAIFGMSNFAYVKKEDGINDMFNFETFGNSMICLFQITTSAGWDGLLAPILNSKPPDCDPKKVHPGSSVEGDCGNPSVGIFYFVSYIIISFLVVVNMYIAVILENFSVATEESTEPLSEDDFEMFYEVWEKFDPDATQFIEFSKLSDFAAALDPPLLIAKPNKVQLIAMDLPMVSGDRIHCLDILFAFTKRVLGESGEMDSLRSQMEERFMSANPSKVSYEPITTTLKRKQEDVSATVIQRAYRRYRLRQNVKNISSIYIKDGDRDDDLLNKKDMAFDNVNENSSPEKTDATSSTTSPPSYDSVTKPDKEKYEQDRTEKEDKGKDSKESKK
hNav1.7, sequence (Q07699 19-218 partner): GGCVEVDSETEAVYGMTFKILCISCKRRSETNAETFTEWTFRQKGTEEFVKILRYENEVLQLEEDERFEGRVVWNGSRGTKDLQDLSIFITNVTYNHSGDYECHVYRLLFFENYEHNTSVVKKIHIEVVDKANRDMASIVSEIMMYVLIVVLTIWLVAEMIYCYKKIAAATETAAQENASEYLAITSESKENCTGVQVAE

| Compound | IC50 [nM] |
| --- | --- |
| CC1(C)C2CCC1(C)[C@H](Oc1cc3nnc(NS(C)(=O)=O)n3cc1C1CC1)C2 (stereo in doubt) [Example 31, N-(6-cyclopropyl-7-(((1S,2R,4R)-1,7,7-trimethylbicyclo-[2.2.1]heptan-2-yl)oxy)-[1,2,4]triazolo[4,3-a]pyridin-3-yl)methanesulfonamide] | 260 |
| CC1(C)C2CC[C@]1(C)[C@H](Oc1cc3nnc(NS(C)(=O)=O)n3cc1C1CC1)C2 (stereo in doubt) [Example 86] | 260 |
| CS(=O)(=O)Nc1nnc2cc(OCC3CCCCC3)c(Br)cn12 [Example 6] | 90.3 |
| C=Cc1cn2c(NS(C)(=O)=O)nnc2cc1OCC1(C)CCCCC1 [Example 7, N-(7-((1-methylcyclohexyl)methoxy)-6-vinyl-[1,2,4]-triazolo[4,3-a]pyridin-3-yl)methanesulfonamide] | 65.3 |
| CS(=O)(=O)Nc1nnc2cc(OC[C@H]3CC[C@H](C(F)(F)F)CC3)c(C3CC3)cn12 [Example 13, N-(6-cyclopropyl-7-(((trans)-4-(trifluoromethyl)cyclohexyl)-methoxy)-[1,2,4]triazolo[4,3-a]pyridin-3-yl)methanesulfonamide] | 22.6 |
| O=S(=O)(Nc1nnc2cc(OCC3CCC4(CC3)CC4)c(C3CC3)cn12)C1CC1 [Example 16, N-(6-cyclopropyl-7-(spiro[2.5]octan-6-ylmethoxy)-[1,2,4]triazolo[4,3-a]pyridin-3-yl)cyclopropanesulfonamide] | 21.7 |
| CC1(C)[C@H]2CC[C@H](COc3cc4nnc(NS(C)(=O)=O)n4cc3C3CC3)[C@@H]1C2 [Example 28, N-(6-cyclopropyl-7-(((1S,2S,5S)-6,6-dimethylbicyclo[3.1.1]heptan-2-yl)methoxy)-[1,2,4]triazolo[4,3-a]pyridin-3-yl)methanesulfonamide] | 2.6 |
| CC1(C)[C@H]2CC[C@H](COc3cc4nnc(NS(=O)(=O)N5CCC5)n4cc3C3CC3)[C@@H]1C2 [Example 30] | 6.75 |
| CS(=O)(=O)Nc1nnc2cc(OC[C@H]3CC[C@H](C)CC3)c(Br)cn12 [Example 32] | 86.6 |
| CS(=O)(=O)Nc1nnc2cc(OC[C@H]3CC[C@H](C)CC3)c(C3CC3)cn12 [Example 33] | 18.4 |
| O=S(=O)(Nc1nnc2cc(OC3CCC4(CCCCC4)CC3)c(C3CC3)cn12)C1CC1 [Example 35, N-(6-cyclopropyl-7-(spiro[5.5]undecan-3-yloxy)-[1,2,4]triazolo-[4,3-a]pyridin-3-yl)cyclopropanesulfonamide] | 51.3 |
| CS(=O)(=O)Nc1nnc2cc(OCC3(C(F)(F)F)CCCC3)c(C3CC3)cn12 [Example 37] | 45.2 |
| O=S(=O)(Nc1nnc2cc(COc3ccc(Cl)c(Cl)c3)c(C3CC3)cn12)C1CC1 [Example 39] | 6.83 |
| O=S(=O)(Nc1nnc2cc(COc3ccc(Cl)c(Cl)c3)c(C3CC3)cn12)N1CCC1 [Example 41, N-(6-cyclopropyl-7-((3,4-dichlorophenoxy)methyl)-[1,2,4]triazolo[4,3-a]pyridin-3-yl)azetidine-1-sulfonamide] | 18.9 |
| O=S(=O)(Nc1nnc2cc(COc3cc(Cl)cc(OC(F)(F)F)c3)c(C3CC3)cn12)C1CC1 [Example 42, N-(7-((3-chloro-5-(trifluoromethoxy)phenoxy)methyl)-6-cyclopropyl-[1,2,4]triazolo[4,3-a]pyridin-3-yl)cyclopropanesulfonamide] | 2.81 |
| CS(=O)(=O)Nc1nnc2cc(COc3cc(Cl)cc(OC(F)(F)F)c3)c(C3CC3)cn12 [Example 43, N-(7-((3-chloro-5-(trifluoromethoxy)phenoxy)methyl)-6-cyclopropyl-[1,2,4]triazolo[4,3-a]pyridin-3-yl)methanesulfonamide] | 2.5 |
| Cc1cc(Cl)cc(OCc2cc3nnc(NS(C)(=O)=O)n3cc2C2CC2)c1 [Example 47, N-(7-((3-chloro-5-methylphenoxy)methyl)-6-cyclopropyl-[1,2,4]triazolo[4,3-a]pyridin-3-yl)methanesulfonamide] | 7.29 |
| Cc1cc(Cl)cc(OCc2cc3nnc(NS(=O)(=O)C4CC4)n3cc2C2CC2)c1 [Example 48, N-(7-((3-chloro-5-methylphenoxy)methyl)-6-cyclopropyl-[1,2,4]triazolo[4,3-a]pyridin-3-yl)cyclopropanesulfonamide] | 6.33 |
| CC1(S(=O)(=O)Nc2nnc3cc(COc4cc(Cl)cc(OC(F)(F)F)c4)c(C4CC4)cn23)CC1 [Example 49, N-(7-((3-chloro-5-(trifluoromethoxy)phenoxy)methyl)-6-cyclopropyl-[1,2,4]triazolo[4,3-a]pyridin-3-yl)-1-methylcyclopropane-1-sulfonamide] | 3.94 |
| CC1(S(=O)(=O)Nc2nnc3cc(COc4cc(Cl)cc(Cl)c4)c(C4CC4)cn23)CC1 [Example 50, N-(6-cyclopropyl-7-((3,5-dichlorophenoxy)methyl)-[1,2,4]-triazolo[4,3-a]pyridin-3-yl)-1-methylcyclopropane-1-sulfonamide] | 4.87 |
| CS(=O)(=O)Nc1nnc2cc(OCC3CCCCC3)c(Br)cn12 [Example 61, N-(6-bromo-7-(cyclohexylmethoxy)-[1,2,4]triazolo[4,3-a]pyridin-3-yl)methanesulfonamide] | 90 |
| C=Cc1cn2c(NS(C)(=O)=O)nnc2cc1OCC1(C)CCCCC1 [Example 62, N-(7-((1-methylcyclohexyl)methoxy)-6-vinyl-[1,2,4]triazolo-[4,3-a]pyridin-3-yl)methanesulfonamide] | 65 |
| CS(=O)(=O)Nc1nnc2cc(OC[C@H]3CC[C@H](C(F)(F)F)CC3)c(C3CC3)cn12 [Example 68, N-(6-cyclopropyl-7-(((trans)-4-(trifluoromethyl)cyclohexyl)methoxy)-[1,2,4]triazolo[4,3-a]pyridin-3-yl)methanesulfonamide] | 23 |

Continued, values first:

| IC50 [nM] | Compound |
| --- | --- |
| 51.2 | C=C(C)c1cn2c(NS(C)(=O)=O)nnc2cc1OCC12CC3CC(CC(C3)C1)C2 [Example 8, N-(7-(adamantan-1-ylmethoxy)-6-(prop-1-en-2-yl)-[1,2,4]-triazolo[4,3-a]pyridin-3-yl)methanesulfonamide] |
| 14 | CC1(COc2cc3nnc(NS(C)(=O)=O)n3cc2C2CC2)CCCCC1 [Example 14, N-(6-cyclopropyl-7-((1-methylcyclohexyl)methoxy)-[1,2,4]-triazolo[4,3-a]pyridin-3-yl)methanesulfonamide] |
| 138 | CCc1cn2c(NS(=O)(=O)N3CC(F)C3)nnc2cc1OCC12CC3CC(CC(C3)C1)C2 [Example 15, N-(7-((3r,5r,7r)-adamantan-1-ylmethoxy)-6-ethyl-[1,2,4]triazolo[4,3-a]pyridin-3-yl)-3-fluoroazetidine-1-sulfonamide] |
| 4.26 | CCS(=O)(=O)Nc1nnc2cc(OCC34CC5CC(CC(C5)C3)C4)c(C3CC3)cn12 [Example 17, N-(7-((3r,5r,7r)-adamantan-1-ylmethoxy)-6-cyclopropyl-[1,2,4]triazolo[4,3-a]pyridin-3-yl)ethanesulfonamide] |
| 7.19 | CC1(S(=O)(=O)Nc2nnc3cc(OCC45CC6CC(CC(C6)C4)C5)c(C4CC4)cn23)CC1 [Example 19, N-(7-((3r,5r,7r)-adamantan-1-ylmethoxy)-6-cyclopropyl-[1,2,4]triazolo[4,3-a]pyridin-3-yl)-1-methylcyclopropane-1-sulfonamide] |
| 8.51 | CS(=O)(=O)Nc1nnc2cc(OCCC34CC5CC(CC(C5)C3)C4)c(C3CC3)cn12 [Example 21] |
| 7.35 | O=S(=O)(Nc1nnc2cc(OCCC34CC5CC(CC(C5)C3)C4)c(C3CC3)cn12)C1CC1 [Example 22] |
| 65.8 | O=S(=O)(Nc1nnc2cc(OC3C4CC5CC(C4)CC3C5)c(C3CC3)cn12)C1CC1 (stereo not drawn) [Example 24, N-(7-(adamantan-2-yloxy)-6-cyclopropyl-[1,2,4]triazolo-[4,3-a]pyridin-3-yl)cyclopropanesulfonamide] |
| 5.24 | CS(=O)(=O)Nc1nnc2cc(OCC3CC4C5CCC(C5)C4C3)c(C3CC3)cn12 (stereo not drawn) [Example 25] |
| 67.4 | CC1(COc2cc3nnc(NS(=O)(=O)C4CC4)n3cc2C2CC2)CCC(F)(F)CC1 [Example 53, N-(6-cyclopropyl-7-((4,4-difluoro-1-methylcyclohexyl)methoxy)-[1,2,4]triazolo[4,3-a]pyridin-3-yl)cyclopropanesulfonamide] |
| 51 | C=C(C)c1cn2c(NS(C)(=O)=O)nnc2cc1OCC12CC3CC(CC(C3)C1)C2 [Example 63, N-(7-((3r,5r,7r)-adamantan-1-ylmethoxy)-6-(prop-1-en-2-yl)-[1,2,4]triazolopyridin-3-yl)methanesulfonamide] |
| 140 | CCc1cn2c(NS(=O)(=O)N3CC(F)C3)nnc2cc1OCC12CC3CC(CC(C3)C1)C2 [Example 70, N-(7-((3r,5r,7r)-adamantan-1-ylmethoxy)-6-ethyl-[1,2,4]triazolo[4,3-a]pyridin-3-yl)-3-fluoroazetidine-1-sulfonamide] |
| 4 | CCS(=O)(=O)Nc1nnc2cc(OCC34CC5CC(CC(C5)C3)C4)c(C3CC3)cn12 [Example 72, N-(7-((3r,5r,7r)-adamantan-1-ylmethoxy)-6-cyclopropyl-[1,2,4]triazolo[4,3-a]pyridin-3-yl)ethanesulfonamide] |
| 7 | CC1(S(=O)(=O)Nc2nnc3cc(OCC45CC6CC(CC(C6)C4)C5)c(C4CC4)cn23)CC1 [Example 74, N-(7-((3r,5r,7r)-adamantan-1-ylmethoxy)-6-cyclopropyl-[1,2,4]triazolo[4,3-a]pyridin-3-yl)-1-methylcyclopropane-1-sulfonamide] |
| 9 | CS(=O)(=O)Nc1nnc2cc(OCCC34CC5CC(CC(C5)C3)C4)c(C3CC3)cn12 [Example 76, N-(7-(2-43r,5r,7r)-adamantan-1-yl)ethoxy)-6-cyclopropyl-[1,2,4]triazolo[4,3-a]pyridin-3-yl)methanesulfonamide] |
| 7 | O=S(=O)(Nc1nnc2cc(OCCC34CC5CC(CC(C5)C3)C4)c(C3CC3)cn12)C1CC1 [Example 77, N-(7-(2-((3r,5r,7r)-adamantan-1-yl)ethoxy)-6-cyclopropyl-[1,2,4]triazolo[4,3-a]pyridin-3-yl)cyclopropanesulfonamide] |
